The values below are quoted from earlier work in US20250345482A1, “3D PRINTED GALLIUM SCAFFOLD” (Northeast Ohio Medical University, priority 2024, published 2025).

In data set [1] the test system is osteoclast differentiation and function. To be noted: inventors' earlier publication (Ghanta P. et al. 2023).
The subject of the next data set is NFAT2, TRAP, and c-Fos. To be noted: literature (Verron E et al. 2012).

Turning to `CC(=O)/C=C(/C)[O][Ga]([O]/C(C)=C\C(C)=O)[O]/C(C)=C\C(C)=O` [GaAcAc, gallium acetylacetonate], the “Osteoclast differentiation and function” value in data set [1] is “effectively inhibited”.
`O=[N+]([O-])[O-].O=[N+]([O-])[O-].O=[N+]([O-])[O-].[Ga+3]` [gallium nitrate]: in the data set on NFAT2, TRAP, and c-Fos, the “Effect on transcription factors responsible for osteoclast differentiation” value is given as “dose-dependent downregulation”.
